Where two headings read alike, the source gives them in different places.
What was measured:
[1] = target: T1, adenosine A2 receptor (Rattus norvegicus, UniProt P30543); test: Adenosine A2 receptor binding (RBA-2), displacement of [3H]NECA
T1 construct: Brains were thawed and then kept on ice while the striata were dissected out; tissue Pel-Freez (Rogers, Ark.); host or cells: rat striatum (Sprague-Dawley brains; Long-Evans gave essentially identical results)
Method: Brains from 200-500 g mixed sex Sprague-Dawley rats were purchased from Pel-Freez (Rogers, Ark.). […] Brains were thawed and then kept on ice while the striata were dissected out. […] The suspension was centrifuged at 50,000 xg for ten minutes, the supernatant discarded, the pellet resuspended in 10 vol ice-cold Tris as above, recentrifuged, resuspended at 1 g/5 ml, and stored in plastic vials at -70° C. […] When needed, tissue was thawed at room temperature, disrupted in a Polytron, and kept on ice until used.
All incubations were for 60 minutes at 25° C. in 12×75 mm glass tubes containing 1 ml Tris with 5 mg original tissue weight of rat weight of rat striatal membranes, 4 nM [^3 H]-N-ethyl adenosine-5'-carboxamide ([^3 H]NECA), 50 nM N^6 -cyclopentyladenosine (to eliminate A1 receptor binding), 10 mM MgCl2, 0.1 units/ml of adenosine deaminase and 1% dimethylsulfoxide. N^6 -Cyclopentyladenosine was dissolved at 10 mM in 0.02N HCl and diluted in Tris. […] Test compounds were dissolved at 10 mM in dimethylsulfoxide on the same day as the experiment, and diluted in dimethylsulfoxide to 100× the final incubation concentration. […] [^3 H]NECA was diluted to 40 nM in Tris. The membrane suspension (5 mg/0.79 ml) contained sufficient MgCl2 and adenosine deaminase to give 10 mM and 0.1 units/ml, respectively, final concentration in the incubation. […] After all additions, the rack of tubes was vortexed, and the tubes were then incubated for 60 min at 25° C. in a shaking water bath. The rack of tubes was vortexed an additional time halfway through the incubation.
Incubations were terminated by filtration through 2.4 cm GF/B filters under reduced pressure. Each tube was filtered as follows: the contents of the tube were poured onto the filter, 4 ml of ice-cold Tris were added to the tube and the contents poured onto the filter, and the filter was washed twice with 4 ml of ice-cold Tris. The filtration was complete in about twelve seconds.
Nonspecific binding was defined as binding in the presence of 100 μM N^6 -cyclopentyladenosine, and specific binding was defined as total binding minus nonspecific binding. The IC50 was calculated by weighted nonlinear least squares curve-fitting to the mass-action equation. [formula] where Y is cpm bound
T is cpm total binding without drug
S is cpm specific binding without drug
D is the concentration of drug and
K is the IC50 of the drug
Weighting factors were calculated under the assumption that the standard deviation was proportional to the predicted value of Y. Nonspecific binding was treated as a very large (infinite) concentration of drug in the computer analysis.

[2] = target: T2, adenosine A1 receptor (Rattus norvegicus, UniProt P25099); test: Adenosine A1 receptor binding (RBA-1), displacement of [3H]-CHA
T2 construct: Whole brain minus cerebellum and brainstem from male Long Evans rats (150-200 g) was homogenized; from tissue; host or cells: rat whole brain minus cerebellum and brainstem, male Long Evans
T2 sequence (P25099 1-326): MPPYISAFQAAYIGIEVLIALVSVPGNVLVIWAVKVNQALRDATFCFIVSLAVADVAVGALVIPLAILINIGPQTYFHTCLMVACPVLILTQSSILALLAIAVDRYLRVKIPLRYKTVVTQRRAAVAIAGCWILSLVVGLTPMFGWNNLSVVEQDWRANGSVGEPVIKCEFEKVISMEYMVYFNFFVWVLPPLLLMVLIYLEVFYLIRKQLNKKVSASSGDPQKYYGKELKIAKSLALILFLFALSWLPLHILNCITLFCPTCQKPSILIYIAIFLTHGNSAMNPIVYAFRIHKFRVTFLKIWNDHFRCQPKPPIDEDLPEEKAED
Method: Whole brain minus cerebellum and brainstem from male Long Evans rats (150-200 g) was homogenized in 30 volumes of ice-cold 0.05M Tris-HCl buffer pH 7.7 using a Brinkman Polytron PT-10, (setting number 6 for 20 seconds) and centrifuged for ten minutes at 20,000×g (Sorvall RC-2), 4° C. The supernatant was discarded, and the pellet was resuspended and centrifuged as before. The pellet was resuspended in 20 ml Tris-HCl buffer containing two International Units/ml of adenosine deaminase (Sigma type III from calf intestinal mucosa), incubated at 37° C. for 30 minutes, then subsequently at 0° C. for ten minutes. The homogenate was again centrifuged, and the final pellet was resuspended in ice-cold 0.05M Tris-HCl buffer pH 7.7 to a concentration of 20 mg/ml original wet tissue weight and used immediately.
Tissue homogenate (10 mg/ml) was incubated in 0.05M Tris-HCl buffer pH 7.7 containing 1.0 nM [^3 H]-N^6 -cyclohexyladenosine [^3 H]-CHA) with or without test agents in triplicate for one hour at 25° C. Incubation volume was 2 ml. Unbound [^3 H]-CHA was separated by rapid filtration under reduced pressure through Whatman glass fiber (GF/B) filters. The filters were rinsed three times with 5 ml of ice cold 0.05M Tris-HCl buffer pH 7.7. The radio-labeled ligand retained on the filter was measured by liquid scintillation spectrophotometry after shaking the filters for one hour or longer on a mechanical shaker in 10 ml of Beckman Ready-Solv HP scintillation cocktail.
Nonspecific binding was defined as the binding which occurred in the presence of 1 mM theophylline. […] The Scatchard plot was calculated by linear regression of the line obtained by plotting the amount of radioligand bound (pmoles/gram of tissue) versus [formula] Since the amount of radioligand bound was a small fraction of the total amount added, free radioligand was defined as the concentration (nM) of radioligand added to the incubation mixture. The Hill coefficient was calculated by linear regression of the line obtained by plotting the log of the bound radioligand vs the log of the [formula] The maximal number of binding sites (Bmax) was calculated from the Scatchard plot.

[3] = system: Swiss-Webster male mice; test: Mouse Activity and Screen Test (MAST): inhibition of spontaneous locomotor activity; type: in vivo; details: 1 hour prior to testing
Method: Nine unfasted Swiss-Webster male mice weighing 20-30 g are equally divided into three groups for each drug dose to be tested. That is, data for each dose level was generated by three separate groups of three mice each. A minimum of three dose levels (10, 30, and 100 mg/kg) are tested for each drug. Treatments are administered intraperitoneally one hour prior to testing. All dosages are calculated as parent compound and given in volumes of 10 ml/kg. Compounds are dissolved or suspended in 0.2% Methocel. Control animals are injected with Methocel. Immediately following the screen test, the final phase of testing is initiated by placing each group of three mice in one actophotometer (Life Sciences, 22, 1067-1076, 1978). The actophotometer consists of a cylindrical chamber whose center is occupied by another cylinder which contains the illumination for six photocells located on the perimeter of the chamber. Six light-beam interruptions equal one count. Locomotor activity is recorded by computer at ten minute intervals for 60 minutes. Data: The data obtained from the screen test are expressed as percent of mice falling off the screen. Data derived from locomotor activity of drug treated mice are compared to the activity of vehicle treated animals and are expressed as percent inhibition of spontaneous locomotion. All percentages reported for inhibition of locomotion (LI) are based upon data accumulated for one hour. Both phases of testing are graded: A=60-100%; C=31-59%; and N=0-30%. An overall dose rating is obtained by the following criteria: […]

[4] = system: Swiss-Webster male mice; test: Mouse Activity and Screen Test (MAST): screen test failure; type: in vivo; details: 1 hour prior to testing
Method: Nine unfasted Swiss-Webster male mice weighing 20-30 g are equally divided into three groups for each drug dose to be tested. That is, data for each dose level was generated by three separate groups of three mice each. A minimum of three dose levels (10, 30, and 100 mg/kg) are tested for each drug. Treatments are administered intraperitoneally one hour prior to testing. All dosages are calculated as parent compound and given in volumes of 10 ml/kg. Compounds are dissolved or suspended in 0.2% Methocel. Control animals are injected with Methocel. Testing: A two part testing procedure is started one hour postinjection. First, the screen test (ST) is performed (see Pharmac. Biochem. Behav. 6, 351-353, 1977). Briefly this test consists of placing mice on individual wire screens which are then rotated 180 degrees at the start of a 60 second observation period. The number of mice falling off the inverted screen is recorded. Data: The data obtained from the screen test are expressed as percent of mice falling off the screen. Data derived from locomotor activity of drug treated mice are compared to the activity of vehicle treated animals and are expressed as percent inhibition of spontaneous locomotion. All percentages reported for inhibition of locomotion (LI) are based upon data accumulated for one hour. Both phases of testing are graded: A=60-100%; C=31-59%; and N=0-30%. An overall dose rating is obtained by the following criteria: […]

[5] = 1.0 nM [3H]-CHA, rat whole brain minus cerebellum and brainstem, read-out: RBA-1 (IC50, adenosine A1 receptor affinity)

T1 sequence (P30543 whole entry): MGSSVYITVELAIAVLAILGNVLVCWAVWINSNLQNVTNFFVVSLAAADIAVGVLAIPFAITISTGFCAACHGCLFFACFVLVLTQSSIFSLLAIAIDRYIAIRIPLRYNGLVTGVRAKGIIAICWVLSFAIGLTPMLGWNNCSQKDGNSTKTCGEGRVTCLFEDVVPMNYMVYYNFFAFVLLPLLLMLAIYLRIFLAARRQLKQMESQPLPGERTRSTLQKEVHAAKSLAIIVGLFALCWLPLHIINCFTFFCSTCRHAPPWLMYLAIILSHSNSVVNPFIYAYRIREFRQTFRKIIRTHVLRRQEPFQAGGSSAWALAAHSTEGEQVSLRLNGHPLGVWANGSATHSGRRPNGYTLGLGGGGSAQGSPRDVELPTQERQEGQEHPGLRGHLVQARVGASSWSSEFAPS

Row | Structure (SMILES) | IC50 [1] | IC50 [2] | Inhibition of Mouse Locomotor Activity ([3]; 10 mg/kg i.p.) | Inhibition of Mouse Locomotor Activity ([3]; 30 mg/kg i.p.) | Inhibition of Mouse Locomotor Activity ([3]; 100 mg/kg i.p.) | Screen Test Failure ([4]; 10 mg/kg i.p.) | Screen Test Failure ([4]; 30 mg/kg i.p.) | Screen Test Failure ([4]; 100 mg/kg i.p.) | IC50 ([1]; 4 nM [3H]NECA, 50 nM N6-cyclopentyladenosine, rat striatal membranes, read-out: RBA-2 (IC50, adenosine A2 receptor affinity)) | IC50 [2, 5] | Inhibition of Mouse Locomotor Activity ([3]; 3.0 mg/kg i.p.) | Screen Test Failure ([4]; 3.0 mg/kg i.p.) | inhibition at 100 µM ([1]; at 1 × 10^-4 M, read-out: RBA-2 Inhib)
1 | OC[C@H](O)CNc1ncnc2c1ncn2[C@@H]1O[C@H](CO)[C@@H](O)[C@H]1O [Example 2, (R)-N^6-[2,3-Dihydroxypropyl]adenosine] | 11 µM | 0.0078 µM | 100% | 100% | 100% | 100% | 100% | 100% |  |  |  |  | 
2 | CC1(C)OC[C@H](CNc2ncnc3c2ncn3[C@@H]2O[C@H](CO)[C@@H](O)[C@H]2O)O1 [Example 6, (S)-N^6-[2,3-Dihydroxypropylisopropylidene]adenosine] |  |  | 47% | 71% |  | 0% | 0% |  | 20 µM | 0.94 µM | 26% | 0% | 
3 | C[C@H]1O[C@@H](n2cnc3c(NCC4COC(C)(C)O4)ncnc32)[C@H](O)[C@@H]1O (stereo partly drawn) [Example 7, (R,S)-N^6-[2,3-Dihydroxypropyl-isopropylidine]-5'-deoxyadenosine] |  |  | 18% | 69% |  | 0% | 0% |  |  | 8.8 µM | 13% | 11% | 23%
4 | CC(C)CC(=O)OCC(CNc1ncnc2c1ncn2[C@@H]1O[C@H](COC(=O)CC(C)C)[C@@H](OC(=O)CC(C)C)[C@H]1OC(=O)CC(C)C)OC(=O)CC(C)C (stereo partly drawn) [Example 11, N-6[2,3-Dihydroxypropyl-2,3-di-O-isovaleroyl]-2',3',5'-tri-O-isovaleroyl adenosine] |  |  | 91% | 79% |  | 55% | 100% |  |  |  | 59% | 22% | 

From patent US4616003A, “N^6 -dihydroxypropyladenosines” (Warner-Lambert Company, priority 1985, dated 1986)
